# Measurements: ChEMBL document CHEMBL3507680, “University of Dundee, Gates Library screen for HepG2 cell viability”
# Experiment: Human HepG2 cell viability assay in 384 well format
# Format: toxicity, cell-based
# Design: dose 125 nL, time 70.5 hour; cytotoxicity at 70.5 h: concentration not given beside the values
# Settings: HepG2 cells, read-out: Inhibition
row,SMILES,cytotoxicity at 70.5 h [%]
1,NCC(c1ccc(Cl)cc1)N1CCc2sccc2C1 (configuration not stated),7.32
2,CCCNC(=O)c1ccc2c(OC)n(C)nc2c1,0.507
3,CC(C)(C)c1noc(CN2CCCC(CNS(N)(=O)=O)C2)n1 (configuration not stated),-2.1
4,COc1ccc2cccc(CC(=O)NCCc3n[nH]c(=O)[nH]3)c2c1,-8.41
5,Cc1nc(CN)cc(NCc2ccccc2-n2cncn2)n1,25
6,CCOc1ccc(S(=O)(=O)NC(=O)CCC2CCCO2)cc1 (configuration not stated),-10.5
7,CCN(CC)c1ncc2c(c1C(=O)O)CCN(C1CCOC1)C2 (configuration not stated),3.75
8,O=C(NC1CCCC1)c1cc2c(s1)CCN2C(=O)c1ccccc1,0.186
9,Cc1cc(CCC(=O)Nc2nncs2)nc(C2CCCN2)n1 (configuration not stated),1.25
10,CC(=O)N1CCC2(CC1)CC(Oc1ccccc1)CO2 (configuration not stated),-7.56
11,CC(C)N1CCC2(CC1)CN(C)C(=O)C[C@H]2C(F)(F)F,-7.67
12,CN(CCO)Cc1nnc(C2CCN(C(=O)CN3CCCC3)CC2)n1C,-0.947
13,Cn1ccnc1CN(CCO)C(=O)c1cnc2ccccc2c1,0.182
14,COc1ccsc1C(=O)NCCNc1ccccc1,-2.66
15,COc1cc(S(=O)(=O)N2CCc3ccccc32)cc(C(=O)O)c1OC,-5.58
16,O=C(c1ccc(C(F)(F)F)cc1)N1C[C@@H](CN2CCCCC2)[C@@H](CO)C1,3.19
17,CC1CCCCN1C1CN(c2ccnc(C(=O)NCc3ccco3)c2)C1 (configuration not stated),-15.4
18,Cc1nccc(C2CCCCN2Cc2cccc(F)c2)n1 (configuration not stated),-12.9
19,COCC1CN(Cc2ccoc2)Cc2nn(CC3CC3)cc21 (configuration not stated),18.3
20,CN(C)CCN1C[C@@H]2OCCN(Cc3cnn(C)c3)[C@@H]2C1,-8.58
21,COC(=O)c1ccc(NC(C)c2ccc3c(c2)NC(=O)CO3)nn1 (configuration not stated),-1.28
22,CCCNC(=O)c1c(-n2cnnn2)sc2c1CCC2,-10.4
23,CC(O)CN1CCN(C(=O)c2ccn(-c3ccc(F)cc3)n2)CC1 (configuration not stated),-3.45

row,SMILES,cytotoxicity at 70.5 h [%]
1,O=C(O)c1nnn(-c2ccccc2)c1-c1ccncc1,-30.6
2,CCCc1cc(NCCn2cccn2)n2ncnc2n1,-6.07
3,COCc1ccc(C(=O)N2CCC(c3nccn3CC3CC3)CC2)o1,-0.956
4,COc1ccccc1N1CCN(Cc2cnc3c(c2)c(C)nn3C)CC1,-11.4
5,O=C(CN1CCCC1c1nc(Cc2ccc(F)cc2)no1)NC1CC1 (configuration not stated),0.125
6,COc1ccc2c(c1)c(-c1nc(N(C)C)ncc1CN)cn2C,12.9
7,Cc1nc(Cc2ccccc2)nc2sc(C(=O)O)c(C)c12,-5.63
8,CCc1n[nH]c(C2CN(C(=O)CCCn3cccn3)CCO2)n1 (configuration not stated),2.59
9,Cc1cc(O)c(OCC(=O)/N=c2\[nH]cc(C)s2)cn1,-21
10,Cc1ccc(CN2CCC3(CC2)CCN(Cc2ccoc2)CC3)cc1,-5.46
11,CCCOc1cc(C)c2c(c1C)C[C@H]([C@H](C)C(=O)O)CC2,-3.42
12,COc1c(C)cnc(CN2CCCC2c2noc(C3CC3)n2)c1C (configuration not stated),1.14
13,CC(CNC(=O)Nc1cn[nH]c1)N1CCc2ccccc2C1 (configuration not stated),-7.18
14,Cc1cc(C(=O)N2CCNC(=O)C2)c(C)n1Cc1ccccn1,-5.56
15,CC(SCC(=O)N(C)CC(=O)NC1CC1)c1ccc(F)c(F)c1 (configuration not stated),-10.3
16,O=C(Cn1ccc2cc(Br)ccc21)NCc1ccc(C(=O)O)cc1,-27.5
17,COc1ccccc1-c1cc(NC(=O)CC2CCS(=O)(=O)C2)[nH]n1 (configuration not stated),-9.57
18,c1ccc(COC[C@H]2CC[C@H]3[C@H](CCN3Cc3cccnc3)O2)nc1,9.23
19,CN(CCOc1ccccc1F)S(=O)(=O)CC1CCOCC1,-8.77
20,CCN(C(C)=O)C1CCN(c2nccc(CCC(F)(F)F)n2)C1 (configuration not stated),-22.6
21,CCC(C)[C@H](N)c1nnc(SCC(=O)Nc2ccc(C)cc2C)o1 (some centres not stated),0.595
22,CC(C)CS(=O)(=O)N1C[C@H]2C[C@H](C(=O)Nc3cccnc3)[C@@H](C1)O2,-6.34
23,CCCC(CNc1cc(C(C)C)nc2ccnn12)N(C)C (configuration not stated),39.1

row,SMILES,cytotoxicity at 70.5 h [%]
1,CN(C)C(=O)CN1CCCC(CCCc2ccccn2)(C(N)=O)C1 (configuration not stated),10.1
2,Cc1oc(CNC(=O)Cc2cccc(OC(F)F)c2)cc1C(=O)O,-7.31
3,CN(C)[C@@H]1CN(Cc2ccccc2O)C[C@H]1c1cn(C)c2ccccc12,44.4
4,CN(C)C(=O)[C@H]1C[C@H]2OCC[C@H]2N(Cc2ccc3ccccc3n2)C1,17.2
5,c1cc(CNCc2ccnc(N3CCOCC3)c2)c2c(c1)OCO2,-8.43
6,CN(C)[C@@H]1CO[C@H](CNC(=O)c2ccccc2)[C@H]1O,-8.77
7,COc1ccc(OC)c2c(C)cc(N(C)Cc3cc(C)on3)nc12,23.1
8,CCS(=O)(=O)N1Cc2nnn(C)c2C(COCCN(C)C)C1 (configuration not stated),-0.313
9,COc1cc(Cl)ccc1CNC(=O)N1CCC(n2cncn2)CC1,0.114
10,Cc1nc2ccccc2nc1CN(C)C1CCCN(c2cccnn2)C1 (configuration not stated),4.32
11,COC(=O)C(NC(=O)c1cc(F)cc(F)c1)c1cccnc1 (configuration not stated),-8.87
12,c1csc(CN2CC[C@H]3O[C@@H](COCC4CC4)CC[C@H]32)c1,27
13,CCn1nc(C)c2nnn(CC(=O)Nc3ccc(C)c(C)c3)c(=O)c21,-7.31
14,O=C(COc1ccccc1)N1C[C@@H]2COC[C@]2(COc2cccnc2)C1,4.76
15,CC1CN(C(=O)NCCCn2cncn2)CCO1 (configuration not stated),-1.85
16,Cc1c(CN2CCc3[nH]cnc3C2C(=O)O)[nH]c2ccc(F)cc12 (configuration not stated),-20.3
17,CCN1CCc2[nH]cnc2C12CCN(C(=O)CCc1cccs1)CC2,6.97
18,CCN1CCN(C(=O)c2cc(C(=O)OC)nn2-c2ccccc2)CC1,0.312
19,OCC(O)CSCc1cn(-c2ccc(F)c(Cl)c2)nn1 (configuration not stated),-7.46
20,CCCN1CCC(c2nc3ccc(-c4ccccc4)cn3n2)CC1,-10.7
21,Cc1nn(C)c(C)c1S(=O)(=O)NCC(C)(O)c1ccc2c(c1)OCO2 (configuration not stated),-1.59
22,Nc1nc(CCCNC(=O)c2ccccc2C2CCNC2)cs1 (configuration not stated),-20.9
23,CCC(CO)N(Cc1ccco1)C(=O)c1ccc(F)cc1Cl (configuration not stated),-2.27

row,SMILES,cytotoxicity at 70.5 h [%]
1,O=C(O)c1ccc(COc2cccc(Cl)c2)s1,-5.91
2,O=C(N[C@H]1CN[C@H]2CCCO[C@H]21)c1ccno1,-4.14
3,O=C(O)c1cccnc1N1CCN(Cc2ccc(F)cc2)C(CCO)C1 (configuration not stated),22.4
4,Cc1nc(CN2CCOC(c3ccc(Cl)cc3)C2)oc1C (configuration not stated),-7.95
5,C[C@H]1CN(Cc2cnn(C)c2)C[C@@]12CCN(Cc1cccnc1)C2=O,-7.75
6,CC1CN(C(=O)CCc2cc(Br)cs2)CCO1 (configuration not stated),-4.33
7,CCN1CC2(CC1=O)CN(Cc1ccncc1)CCN(C(=O)C(C)C)C2 (configuration not stated),28.2
8,CC(C)(C)CC(=O)NCC1CCCS1 (configuration not stated),-8.2
9,Cc1cc(CN2CC[C@H]3[C@H]2CCN3S(C)(=O)=O)oc1C,-8.76
10,CN(C)C(c1ccccn1)[C@H]1CC[C@H](CNC(=O)C2CCCC2)CC1 (some centres not stated),-2.3
11,CCOCC1CN(c2ccc(C)nn2)Cc2cnn(CC)c21 (configuration not stated),-5.73
12,CNC(=O)COc1ccc(CNc2c(Cl)cccc2C#N)cc1,-2.72
13,O=C(CC1CC1)N1CCn2cc(Cn3cncn3)nc2C1,-18.5
14,CCOC(=O)C(CO)NC(=O)CCc1cccc(OC2CCCC2)c1 (configuration not stated),-3.2
15,CN(CCn1ccc2ccccc21)C(=O)Cc1nnn[nH]1,17.9
16,O=C(c1cncc(N2CCC(O)(CO)CC2)n1)N1CCCC1,-9.52
17,CC(C)c1cc(C(=O)N(Cc2ccncc2)CC2CCCO2)no1 (configuration not stated),-6.68
18,COCC(=O)N1CCN(C(=O)c2scnc2C)CC1,-11.5
19,Cc1cnc(N2CC3(CCN(C(=O)c4cccnc4)C3)C2)nc1,-4.83
20,CN(Cc1cc(Br)cn1C)C(=O)Cc1cccc(O)c1,-3.37
21,Cc1cc(CN2CCN(C(=O)NCc3cccs3)CC2)on1,-14.6
22,CC(C)CC(=O)N1Cc2ccccc2CC1C(=O)Nc1nncs1 (configuration not stated),1.18
23,CCCS(=O)(=O)N1CC[C@H]2O[C@@H](c3nc(C)no3)CC[C@H]21,-21.7

row,SMILES,cytotoxicity at 70.5 h [%]
1,CCOc1cccc(C2CC(=O)NCc3nc(N4CCCC4)sc32)c1 (configuration not stated),-3
2,O=C(c1cnccn1)N1C[C@@H](OCc2cccnc2)[C@H]2OCCC[C@H]21,8.16
3,O=c1cc(CN2CCCC2)nc2n1CCCN(CC1CCOCC1)C2,-13.6
4,CC(=O)N1CC2(CCNCC2)c2cc(C)ccc21,20.4
5,Cc1nnc([C@@H]2CC[C@@H]3[C@@H](CCN3S(=O)(=O)C3CC3)O2)o1,-14
6,CCN(Cc1ccc(Cl)s1)S(=O)(=O)CCOC,-13.3
7,CCN(CC)c1ccc(C2C3=C(COC3=O)Nc3[nH]nc(C)c32)cc1 (configuration not stated),-4.13
8,CCOc1ccc(NC(=O)c2[nH]c(C)cc2C)cc1CO,20.6
9,CC(NC1(CNS(=O)(=O)N(C)C)CCCC1)c1ccccc1 (configuration not stated),-13.2
10,CC(=O)NCC(=O)N1CCN(C)c2ncccc2C1,-11.3
11,NC(=O)Cn1c(CO)cnc1SCc1ccccc1Cl,18.9
12,c1ccc(CN2CCN3C[C@H](Oc4cncnc4)C[C@H]3C2)nc1,-3.2
13,CCOC1CCCN(C(=O)c2[nH]nc(C(C)C)c2Br)C1 (configuration not stated),11.3
14,CC(C)(NC(=O)C1CCCN(C2CCCC2)C1)c1nnc(N)s1 (configuration not stated),-3.27
15,CC(C(=O)N1CCC(c2[nH]ncc2-c2ccccc2)CC1)n1cncn1 (configuration not stated),-9.13
16,Fc1cccc(N2CCCC3(C2)CN(c2cnccn2)CCO3)c1 (configuration not stated),-5.22
17,CCc1nc(C)c([C@H]2CN(C)C[C@@H]2C(=O)NCCc2cnccn2)[nH]1,-5.77
18,O=S(=O)(c1cccc(F)c1)N1C[C@@H]2CC[C@H](C1)N(Cc1ccccc1)C2,-12.7
19,CC(C)NC(=O)C(NC(=O)N1CCN(c2ccc(Cl)cc2)CC1)C(C)C (configuration not stated),-13.3
20,Cn1nnnc1SCC1Cc2ccccc2O1 (configuration not stated),26.1
